Results: patent US7666850B2, “Drug screens based on the newly found role of dystroglycan proteolysis and restoration of dystroglycan function thereof” (The Regents of the University of California, priority 1999, dated 2010)
Entries after “also recorded” stand apart in the source; their conditions may differ.

Experiments:
MDA-MD-231 cells = assay: 3-dimensional basement membrane (3D-BM) assay, MDA-MD-231 cells; type: cell-based
Text: Dystroglycan function reduces the growth potential and induces polarity in normal mammary epithelial cells exposed to basement membrane proteins. […] Because dystroglycan function is lost in part by proteolytic shedding, inhibition of dystroglycan shedding can restore or enhance dystroglycan function. Therefore, restoration of dystroglycan function can be used as an assay for inhibitors of the metaloproteinase(s) cleaving and shedding α-dystroglycan. Carcinoma cell lines, including the HMT-3522-T4 cells and MDA-MD-231 cells, were cultured within the 3-dimensional basement membrane (3-D BM) assay. To accomplish this the cells were trypsinized from routine cell culture, washed once with DMEM/F12 medium, treated with soybean trypsin inhibitor, washed again with DMEM/F12 medium and resuspended in growth medium [DMEM/F12, supplemented with insulin 250 ng/ml (Boehringer Mannheim, Indianapolis, Ind.), 10 μg/ml transferrin (Sigma), 2.6 ng/ml sodium selenite (Collaborative Research), 1.4×10^−6 M hydrocortisone (Collaborative Research), 1×10^−10 M β-estradiol (Sigma),5 μg/ml prolactin (Sigma)]. The cells were counted and 100,000 cells were resuspended in 0.3-0.5 mls of growth factor-reduced Matrigel (Collaborative Research). This mixture was placed into a 1.5 cm diameter cell culture well, and incubated at 37 degrees Celsius for 30 minutes to induce gelling of the Matrigel. Subsequently, the gelled cell-BM protein mixture was overlayed with growth medium with or without the addition of protease inhibitors or control substances. The cells were cultured at 37 degrees Celsius in a cell culture incubator at 5% carbon dioxide. The growth medium and additives were changed every two days.
The assay was allowed to proceed from 6 to 10 days. Over this time, the cells grew from single cells within the gel to form multicellular aggregates with variable characteristics, from polarized and growth arrested (normal phenotype), to disorganized and growing (tumorigenic phenotype), to invasive. […]

HMT-3522-T4 (T4) cells = assay: 3-dimensional basement membrane (3D-BM) assay, HMT-3522-T4 cells; type: cell-based
Text: Dystroglycan function reduces the growth potential and induces polarity in normal mammary epithelial cells exposed to basement membrane proteins. […] Because dystroglycan function is lost in part by proteolytic shedding, inhibition of dystroglycan shedding can restore or enhance dystroglycan function. Therefore, restoration of dystroglycan function can be used as an assay for inhibitors of the metaloproteinase(s) cleaving and shedding α-dystroglycan. […] The cells were counted and 100,000 cells were resuspended in 0.3-0.5 mls of growth factor-reduced Matrigel (Collaborative Research). This mixture was placed into a 1.5 cm diameter cell culture well, and incubated at 37 degrees Celsius for 30 minutes to induce gelling of the Matrigel. Subsequently, the gelled cell-BM protein mixture was overlayed with growth medium with or without the addition of protease inhibitors or control substances. The cells were cultured at 37 degrees Celsius in a cell culture incubator at 5% carbon dioxide. The growth medium and additives were changed every two days.
The assay was allowed to proceed from 6 to 10 days. […] Measures of polarity and reduced growth potential can be easily optimized by methods existing in the art.

MMPs = conditions: MPs other than some ADAMs; cited from earlier work
[1] = test system: α-dystroglycan shedding, SCg6 mammary carcinoma cells; assay: Dystroglycan proteolysis assay: immunoblot detection of α-dystroglycan shed from the cell surface into culture medium; type: cell-based
Protocol: To ask if shedding was induced by the proteolysis, we treated the cells with a general matrix metaloproteinase (MW) inhibitor, GM6001, to see if α-dystroglycan shedding was inhibited.
Cleavage of a-dystroglycan was detected using cultured cells that cleave and shed dystroglycan from the cell surface. Dystroglycan cleavage was assayed for by immunoblotting to detect the presence of dystroglycan fragments in the medium of cultured cells. Mammary carcinoma cell lines SCg6 or TCL1 were cultured in 10 milliliters (ml) DMEM/F12 medium supplemented with 2% fetal calf serum, 5 μg/ml insulin (Sigma Chemical Co., St. Louis, Mo.), and 50 μg/ml Gentamycin (UCSF Cell Culture Facility). The cells were allowed to grow to 80% confluence in 10 centimeter (cm) plastic tissue culture dishes. The cells were rinsed two times with phosphate-buffered saline (PBS) and the medium was then changed to 10 mls DMEM/F12 medium supplemented with insulin, and Gentamycin, but without added serum. The cells were incubated in this serum-free medium for 48 hrs, then this conditioned medium was harvested and filtered through 0.4 µm filters to remove cells or cell debris. The harvested medium was concentrated from 10 ml to approximately 1.0 ml using a CENTRIPREP-30 concentrator (Amicon, Beverly, Mass.). The concentrated supernatant was added to 1/10th volume of 10× sample buffer (50% glycerol, 100 mM acetic acid, 10% SDS (w/v), 12.5% (v/v) β-mercaptoethanol, bromophenol blue) and heated at 70 degrees Celsius for 15 minutes prior to loading on SDS-polyacrylamide (SDS-PAGE) gels, and subjected to immunoblot analysis. Assays of dystroglycan cleavage and shedding in the presence of the metaloproteinase inhibitor GM6001 (AMS Scientific, Pleasant Hills, Calif.) were performed in the same manner, with varying concentrations of GM6001, or the control C1004 (AMS Scientific), diluted into the serum-free culture medium at the beginning of the 48 hour incubation. To compare treatments, equivalent volumes of conditioned medium from each treated cell population were loaded onto the gel to determine the relative quantities of dystroglycan shed into the medium.
After separation on an 8% SDS-PAGE gels, the proteins were electrophoretically transferred to Immobilon-P membranes (Millipore Corp., Bedford, Mass.) using methanol transfer buffer (20 mM Tris pH 8.3, 150 mM glycine, 0.5% SDS, 20% methanol). Following the transfer, the membranes were blocked for two hours in low salt TBST buffer (20 mM Tris-HCI, pH 8.0, 100 mM NaCl, 1.0% Tween-20 detergent) plus 5% non-fat dried milk (Lucerne). After blocking, the membranes were incubated for 45 minutes with the IIH6 monoclonal antibody (primary antibody against α-dystroglycan, obtained from Dr. Kevin Campbell, University of Iowa) diluted in low salt TBST plus 5% dried milk. The primary antibody was diluted 1:20 from a concentrated (8×) stock of hybridoma supernatant. After incubation with the primary antibody, the membranes were washed with low-salt TBST and incubated 45 minutes with an horse radish peroxidase (HRP) conjugated secondary antibody (anti-IgM Product # A 8786 from Sigma).

| Molecule | effect on tumor cell growth characteristics in the 3D-BM assay (MDA-MD-231 cells; 2 μM, FIG. 3F) | growth and invasion of MDA-MD-231 cells in the 3D-BM assay (MDA-MD-231 cells; 40 μM, FIGS. 3G, 3H) | concentration required to reduce growth (and invasion) of MDA-MD-231 cells (MDA-MD-231 cells; 6 to 10 days in Matrigel) | effect on tumor cell growth characteristics in the 3D-BM assay (HMT-3522-T4 (T4) cells; 2 μM, FIG. 3B) | tumorigenic phenotype in the 3D-BM assay (HMT-3522-T4 (T4) cells; 40 μM, FIGS. 3C, 3D) | cell growth after removal of the inhibitor (HMT-3522-T4 (T4) cells; removal for 7 days following a ten-day incubation with the inhibitor) | GM6001 concentrations that generally inhibit other MP's (MMPs) | shedding of α-dystroglycan (proteolysed form) into the culture supernatant ([1]; 40 μM, FIG. 1B) | shedding of α-dystroglycan in the supernatant across a concentration series ([1]; five different concentrations, FIG. 1C) | Ki ([1]; titration of GM6001, FIG. 1C, 48 h serum-free medium, read-out: Ki (pKi) for inhibition of α-dystroglycan shedding (converted)) [µM] | concentration giving nearly complete inhibition of α-dystroglycan shedding ([1]; titration, FIG. 1C) | reversion of the T4 tumor cell line in the 3D-BM assay (HMT-3522-T4 (T4) cells; 10 μM) |
| --- | --- | --- | --- | --- | --- | --- | --- | --- | --- | --- | --- | --- |
| CNC(=O)[C@H](Cc1c[nH]c2ccccc12)NC(=O)[C@@H](CC(=O)NO)CC(C)C [GM6001, N-[2(R)-2(hydroxamidocarbonylmethyl)-4-methylpentanoyl]-L-tryptophane methylamide] | No effect | potently inhibited the growth and invasion | over 20 μM | No effect | Complete “reversion” of the tumor phenotype; also recorded: caused growth arrest, polarization and reversion to a non-tumorigenic phenotype | did not permit a re-initiation of cell growth | below 30 μM | blocked; also recorded: no longer detected | differentially blocked | ~10 | over 25 μM |  |
| TAPI |  |  |  |  |  |  |  |  |  |  |  | revert |
